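Grown in 96-well plates, cells were treated for 48 hours with each compound at five concentrations. Insufficient inhibition: endpoint recorded as highest concentration tested. The concentration for full growth arrest is given as TGI.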
Key:
Test in all cases: NCI anticancer screen, dose series, 48 h
MOLT-4 leukemia = tested on: MOLT-4 leukemia
ACHN renal = tested on: ACHN renal
U251 CNS = tested on: U251 CNS
OVCAR-8 ovarian = tested on: OVCAR-8 ovarian
NCI-H522 lung = tested on: NCI-H522 lung
SNB-19 CNS = tested on: SNB-19 CNS
MDA-MB-435 = tested on: MDA-MB-435
IGROV1 ovarian = tested on: IGROV1 ovarian
SK-MEL-2 melanoma = tested on: SK-MEL-2 melanoma
SF-295 CNS = tested on: SF-295 CNS
SK-OV-3 ovarian = tested on: SK-OV-3 ovarian
NCI/ADR-RES ovarian = tested on: NCI/ADR-RES ovarian
KM12 colon = tested on: KM12 colon
MDA-MB-231 breast = tested on: MDA-MB-231 breast
RPMI-8226 leukemia = tested on: RPMI-8226 leukemia
MCF7 breast = tested on: MCF7 breast
NCI-H226 lung = tested on: NCI-H226 lung
SF-539 CNS = tested on: SF-539 CNS
HL-60(TB) leukemia = tested on: HL-60(TB) leukemia
OVCAR-4 ovarian = tested on: OVCAR-4 ovarian
M14 melanoma = tested on: M14 melanoma
CCRF-CEM leukemia = tested on: CCRF-CEM leukemia
BT-549 breast = tested on: BT-549 breast
SK-MEL-28 melanoma = tested on: SK-MEL-28 melanoma
SF-268 CNS = tested on: SF-268 CNS
DU-145 prostate = tested on: DU-145 prostate
SN12C renal = tested on: SN12C renal
CAKI-1 renal = tested on: CAKI-1 renal
COLO 205 colon = tested on: COLO 205 colon
HCC-2998 colon = tested on: HCC-2998 colon
EKVX NSCLC = tested on: EKVX NSCLC
MDA-N = tested on: MDA-N
HCT-15 colon = tested on: HCT-15 colon
OVCAR-5 ovarian = tested on: OVCAR-5 ovarian
UACC-257 melanoma = tested on: UACC-257 melanoma
HCT-116 colon = tested on: HCT-116 colon
HT29 colon = tested on: HT29 colon
SK-MEL-5 melanoma = tested on: SK-MEL-5 melanoma
PC-3 prostate = tested on: PC-3 prostate
MALME-3M melanoma = tested on: MALME-3M melanoma
SNB-75 CNS = tested on: SNB-75 CNS
SW-620 colon = tested on: SW-620 colon
OVCAR-3 ovarian = tested on: OVCAR-3 ovarian
A549 NSCLC = tested on: A549 NSCLC
TK-10 renal = tested on: TK-10 renal
NCI-H460 lung = tested on: NCI-H460 lung
UACC-62 melanoma = tested on: UACC-62 melanoma
LOX IMVI melanoma = tested on: LOX IMVI melanoma
T-47D breast = tested on: T-47D breast
HS 578T breast = tested on: HS 578T breast
K-562 leukemia = tested on: K-562 leukemia
NCI-H23 lung = tested on: NCI-H23 lung
RXF 393 renal = tested on: RXF 393 renal
786-0 renal = tested on: 786-0 renal
UO-31 renal = tested on: UO-31 renal
HOP-92 NSCLC = tested on: HOP-92 NSCLC
HOP-62 NSCLC = tested on: HOP-62 NSCLC
A498 renal = tested on: A498 renal

CCCCCCNC(=O)c1cc(NCc2cc(OC)ccc2OC)ccc1O was tested, and the TGI (MOLT-4 leukemia) was 66.5 µM, the TGI (ACHN renal) was > 100 µM and the TGI (U251 CNS) was 41.1 µM. The TGI (OVCAR-8 ovarian) was 86.7 µM, the TGI (NCI-H522 lung) was 33.1 µM and the TGI (SNB-19 CNS) was > 100 µM. For the same molecule, the TGI (MDA-MB-435) was 44.8 µM, the TGI (IGROV1 ovarian) was 55 µM and the TGI (SK-MEL-2 melanoma) was 45.8 µM. For the same molecule, the TGI (SF-295 CNS) was 30.1 µM, the TGI (SK-OV-3 ovarian) was 36.9 µM and the TGI (NCI/ADR-RES ovarian) was 48.1 µM. It also gave a TGI (KM12 colon) of 80 µM, a TGI (MDA-MB-231 breast) of 46.7 µM and a TGI (RPMI-8226 leukemia) of 35.6 µM. For the same molecule, the TGI (MCF7 breast) was 53.5 µM, the TGI (NCI-H226 lung) was 64.9 µM and the TGI (SF-539 CNS) was 36.3 µM. For the same molecule, the TGI (HL-60(TB) leukemia) was 46 µM, the TGI (OVCAR-4 ovarian) was 70.5 µM and the TGI (M14 melanoma) was 38.4 µM. The TGI (CCRF-CEM leukemia) was 68.6 µM, the TGI (BT-549 breast) was 33.4 µM and the TGI (SK-MEL-28 melanoma) was > 100 µM. The TGI (SF-268 CNS) was 32.3 µM, the TGI (DU-145 prostate) was > 100 µM and the TGI (SN12C renal) was 53.7 µM. The TGI (CAKI-1 renal) was 98 µM, the TGI (COLO 205 colon) was 33.9 µM and the TGI (HCC-2998 colon) was 68.4 µM. The TGI (EKVX NSCLC) was 63.1 µM, the TGI (MDA-N) was 41.8 µM and the TGI (HCT-15 colon) was 57.3 µM. For the same molecule, the TGI (OVCAR-5 ovarian) was > 100 µM, the TGI (UACC-257 melanoma) was 45.7 µM and the TGI (HCT-116 colon) was 49.6 µM. It also gave a TGI (HT29 colon) of 85.2 µM, a TGI (SK-MEL-5 melanoma) of 28.4 µM and a TGI (PC-3 prostate) of 45.7 µM. The TGI (MALME-3M melanoma) was 55.9 µM, the TGI (SNB-75 CNS) was 76.3 µM and the TGI (SW-620 colon) was > 100 µM. The TGI (OVCAR-3 ovarian) was 7.05 µM, the TGI (A549 NSCLC) was > 100 µM and the TGI (TK-10 renal) was > 100 µM. For the same molecule, the TGI (NCI-H460 lung) was 84.4 µM, the TGI (UACC-62 melanoma) was 33 µM and the TGI (LOX IMVI melanoma) was 32.9 µM. The TGI (T-47D breast) was 46.1 µM, the TGI (HS 578T breast) was 97.9 µM and the TGI (K-562 leukemia) was 47.3 µM. The TGI (NCI-H23 lung) was 80.6 µM, the TGI (RXF 393 renal) was 56.5 µM and the TGI (786-0 renal) was 75 µM. For the same molecule, the TGI (UO-31 renal) was 53.1 µM and the TGI (HOP-92 NSCLC) was 31.7 µM.

With Cc1[nH]c2c(C)ccc(C)c2c1CC(=O)O the TGI (MOLT-4 leukemia) was 54.1 µM, the TGI (ACHN renal) was > 100 µM and the TGI (U251 CNS) was > 100 µM. For the same molecule, the TGI (OVCAR-8 ovarian) was > 100 µM, the TGI (NCI-H522 lung) was 62.1 µM and the TGI (SNB-19 CNS) was > 100 µM. The TGI (MDA-MB-435) was > 100 µM, the TGI (IGROV1 ovarian) was > 100 µM and the TGI (SK-MEL-2 melanoma) was 81.9 µM. The TGI (SF-295 CNS) was > 100 µM, the TGI (SK-OV-3 ovarian) was > 100 µM and the TGI (NCI/ADR-RES ovarian) was > 100 µM. The TGI (KM12 colon) was > 100 µM, the TGI (MDA-MB-231 breast) was 76.3 µM and the TGI (RPMI-8226 leukemia) was 66.8 µM. For the same molecule, the TGI (MCF7 breast) was > 100 µM, the TGI (NCI-H226 lung) was > 100 µM and the TGI (SF-539 CNS) was > 100 µM. For the same molecule, the TGI (HL-60(TB) leukemia) was 23.7 µM, the TGI (OVCAR-4 ovarian) was > 100 µM and the TGI (M14 melanoma) was > 100 µM. The TGI (HOP-62 NSCLC) was > 100 µM, the TGI (CCRF-CEM leukemia) was 42.3 µM and the TGI (BT-549 breast) was > 100 µM. The TGI (SK-MEL-28 melanoma) was > 100 µM, the TGI (SF-268 CNS) was > 100 µM and the TGI (DU-145 prostate) was > 100 µM. The TGI (SN12C renal) was > 100 µM, the TGI (CAKI-1 renal) was > 100 µM and the TGI (COLO 205 colon) was > 100 µM. For the same molecule, the TGI (HCC-2998 colon) was > 100 µM, the TGI (EKVX NSCLC) was > 100 µM and the TGI (MDA-N) was > 100 µM. For the same molecule, the TGI (HCT-15 colon) was > 100 µM, the TGI (OVCAR-5 ovarian) was > 100 µM and the TGI (UACC-257 melanoma) was > 100 µM. The TGI (HCT-116 colon) was > 100 µM, the TGI (HT29 colon) was > 100 µM and the TGI (SK-MEL-5 melanoma) was > 100 µM. For the same molecule, the TGI (PC-3 prostate) was 69.9 µM, the TGI (MALME-3M melanoma) was > 100 µM and the TGI (SW-620 colon) was > 100 µM. For the same molecule, the TGI (OVCAR-3 ovarian) was > 100 µM, the TGI (A549 NSCLC) was > 100 µM and the TGI (TK-10 renal) was > 100 µM. For the same molecule, the TGI (NCI-H460 lung) was > 100 µM, the TGI (UACC-62 melanoma) was > 100 µM and the TGI (LOX IMVI melanoma) was > 100 µM. The TGI (T-47D breast) was > 100 µM, the TGI (HS 578T breast) was 60.4 µM and the TGI (K-562 leukemia) was > 100 µM. The TGI (A498 renal) was > 100 µM, the TGI (NCI-H23 lung) was > 100 µM and the TGI (RXF 393 renal) was > 100 µM. For the same molecule, the TGI (786-0 renal) was > 100 µM and the TGI (UO-31 renal) was > 100 µM.
